How the values were obtained:
Ab1 fibrils [1] = test system: T1, Ab1 fibrils; assay: Fibril incubation with plasma, quantitative MS/MS of bound proteins; format: binding, human; settings: 50:1 w/w plasma protein:fibril
T1 construct: Synthetic amyloid β peptide 1–40 was purchased from Caslo Aps (Lyngby, Denmark); purchased Caslo Aps (Lyngby, Denmark); host or cells: synthetic peptide
Method: (§1) Plasma and CSF solutions were centrifuged (40,000 g, 20 min) to remove any aggregates. The protein concentration was determined using 280 nm absorbance assuming 1 Abs = 1 mg/mL. Samples with fibril material (20 μg), plasma (500 μg) or CSF (40 μg) proteins were prepared in 200 μL PBS buffer with 5 mM EDTA. Control samples (without fibril material) were prepared similarly. All samples were incubated at room temperature for one hour under gentle agitation. Fibrils and fibril-bound proteins were pelleted by centrifugation at 17,000 g for 30 minutes. The supernatant (175 μL) was removed and the aggregate was re-suspended in 175 μL PBS and pelleted again before further preparation for gel analysis and spin-filter assisted digest for quantitative MS/MS.
(§2) The fibril-protein pellets were transferred to spin-filters (0.22 μm), washed twice in PBS (100 μL) and once in 1 M NaCl (100 μL). The fibrils and fibril-bound proteins were dissolved by one-hour incubation in 100 μL 6 M guanidinium chloride followed by elution from the spin-filter. The eluted proteins were loaded onto a 3 kDa MWCO filter unit for filter-assisted unfolding, reduction, alkylation, and trypsin digestion. In brief, samples were washed twice in 8 M urea, once in 8 M urea with 50 mM DTT, once in 8 M urea with 50 mM iodoaceteamide, and twice in 8 M Urea. The filter units were dried by centrifugation (14,000 g in 30 minutes) after every addition. Trypsin digestion was carried out with 0.25 μg sequencing grade trypsin from Sigma Aldrich in 50 mM ammonium bicarbonate overnight at 37 °C. The tryptic peptides were collected by centrifugation, acidified with TFA (0.1%) and micro-purified using POROS R2 column material (Applied Biosystems) packed in P200 pipette tips (Sarstedt).
(§3) LC-MS/MS analyses were performed on an EASY-nLC II system (Thermo Fisher Scientific) connected to a TripleTOF 5600+ mass spectrometer (Sciex) equipped with a NanoSpray III source (Sciex) and operated under Analyst TF 1.6.0 control.
(§4) The micro-purified tryptic peptides were dissolved in 0.1% formic acid, injected and trapped on an in-house packed trap column (2 cm × 100 μm I.D) with RP ReproSil-Pur C18-AQ 3 μm resin (Dr. Maisch GmbH). Peptides were eluted from the trap column and separated on a 15 cm analytical column (75 μm i.d.) packed in-house in a pulled emitter with RP ReproSil-Pur C18-AQ 3 μm resin (Dr. Maisch GmbH). Elution from the analytical column was performed with a linear gradient from 5% to 35% phase B (90% acetonitrile with 0.1% formic acid) over 20 min for protein identification and 50 min for quantitative analysis, respectively.
(§5) All samples were analysed three times, yielding nine MS/MS experiments for each fibril for both plasma and CSF. For the area-based extracted ion chromatogram (XIC) quantification, the acquisition method was set up as an information-dependent acquisition (IDA) experiment collecting up to 25 MS/MS spectra in each 1.6 sec cycle using an exclusion window of 6 sec.
(§6) XIC quantification was based on the average ion intensity of the three most abundant peptides for each protein. Only proteins quantified in at least four out of nine MS/MS experiments per fibril were included in the quantification. The total ion scores were visualized after grouping the proteins according to function (Figure S11).
(§7) For each MS/MS experiment, the ion intensities of the individual proteins were normalized to the total ion intensity of that MS/MS experiment to achieve a relative protein composition. The contribution of each protein was averaged over all nine MS/MS experiments (Tables 1 and 2).

Ab2 fibrils [2] = test system: T2, Ab2 fibrils; assay: as above; format: binding, human; settings: 50:1 w/w plasma protein:fibril
T2 construct: Two structurally distinct fibrils of the Aβ(1–40) peptide associated with AD
Method: as §1, with “Samples with fibril material (20 μg), plasma (500 μg) or CSF (40 μg) proteins were prepared in 200 μL PBS buffer with 5 mM EDTA.” left out
as §2, §3, §4, §5, §6, §7

glucagon fibrils [3] = biological target: T3, glucagon fibrils (Homo sapiens, UniProt P01275); assay: as above; format: binding; settings: 50:1 w/w plasma protein:fibril
T3 construct: fibrils of the peptide hormone glucagon
Method: as §1, with “Samples with fibril material (20 μg), plasma (500 μg) or CSF (40 μg) proteins were prepared in 200 μL PBS buffer with 5 mM EDTA.” left out
as §2, §3, §4, §5, §6, §7

C-36 fibrils [4] = biological target: T4, C-36 fibrils (Homo sapiens, UniProt P01009); assay: as above; format: binding; set-up: key to Identification status of plasma protein bound: C-36: *: Identified, but not quantified; —: Not identified in any of the samples; settings: for Relative composition of plasma proteins bound: C-36: 50:1 w/w plasma protein:fibril
T4 construct: the 36 residue C-terminal fragment of α1-antitrypsin (C-36)
Method: as §1, with “Samples with fibril material (20 μg), plasma (500 μg) or CSF (40 μg) proteins were prepared in 200 μL PBS buffer with 5 mM EDTA.” left out
as §2, §3, §4, §5, §6, §7

αSN fibrils [5] = biological target: T5, αSN fibrils (Homo sapiens, UniProt P37840); assay: as above; format: binding; set-up: key to Identification status of plasma protein bound: αSN: *: Identified, but not quantified; —: Not identified in any of the samples; settings: for Identification status of plasma protein bound: αSN: symbol cells; for Relative composition of plasma proteins bound: αSN: 50:1 w/w plasma protein:fibril
Method: as §1, with “Samples with fibril material (20 μg), plasma (500 μg) or CSF (40 μg) proteins were prepared in 200 μL PBS buffer with 5 mM EDTA.” left out
as §2, §3, §4, §5, §6, §7

FAS4-AD aggregates [6] = test system: T6, FAS4-AD aggregates; assay: as above; format: binding, human; set-up: key to Identification status of plasma protein bound: FAS4-AD: *: Identified, but not quantified; —: Not identified in any of the samples; settings: for Relative composition of plasma proteins bound: FAS4-AD: 50:1 w/w plasma protein:fibril; for Identification status of plasma protein bound: FAS4-AD: symbol cells
T6 construct: aggregates of a mutated version of the FAS1-4 domain of TGFBIp
Method: as §1, with “Samples with fibril material (20 μg), plasma (500 μg) or CSF (40 μg) proteins were prepared in 200 μL PBS buffer with 5 mM EDTA.” left out
as §2, §3, §4, §5, §6, §7

Ab1 fibrils [7] = test system: T1, Ab1 fibrils; assay: Fibril incubation with CSF, quantitative MS/MS of bound proteins; format: binding, human; settings: 4:1 w/w CSF protein:fibril
Method: as §1, with “Samples with fibril material (20 μg), plasma (500 μg) or CSF (40 μg) proteins were prepared in 200 μL PBS buffer with 5 mM EDTA.” left out
as §2, §3, §4, §5, §6, §7

Ab2 fibrils [8] = test system: T2, Ab2 fibrils; assay: as above; format: binding, human; set-up: key to Identification status of CSF protein bound: Ab2: *: Identified, but not quantified; —: Not identified in any of the samples; settings: for Identification status of CSF protein bound: Ab2: symbol cells; for Relative composition of CSF proteins bound: Ab2: 4:1 w/w CSF protein:fibril
Method: as §1, with “Samples with fibril material (20 μg), plasma (500 μg) or CSF (40 μg) proteins were prepared in 200 μL PBS buffer with 5 mM EDTA.” left out
as §2, §3, §4, §5, §6, §7

glucagon fibrils [9] = biological target: T3, glucagon fibrils; assay: as above; format: binding; settings: 4:1 w/w CSF protein:fibril
Method: as §1, with “Samples with fibril material (20 μg), plasma (500 μg) or CSF (40 μg) proteins were prepared in 200 μL PBS buffer with 5 mM EDTA.” left out
as §2, §3, §4, §5, §6, §7

C-36 fibrils [10] = biological target: T4, C-36 fibrils; assay: as above; format: binding; set-up: key to Identification status of CSF protein bound: C-36: *: Identified, but not quantified; —: Not identified in any of the samples; settings: for Identification status of CSF protein bound: C-36: symbol cells; for Relative composition of CSF proteins bound: C-36: 4:1 w/w CSF protein:fibril
Method: as §1, with “Samples with fibril material (20 μg), plasma (500 μg) or CSF (40 μg) proteins were prepared in 200 μL PBS buffer with 5 mM EDTA.” left out
as §2, §3, §4, §5, §6, §7

αSN fibrils [11] = biological target: T5, αSN fibrils; assay: as above; format: binding; set-up: key to Identification status of CSF protein bound: αSN: *: Identified, but not quantified; —: Not identified in any of the samples; settings: for Identification status of CSF protein bound: αSN: symbol cells; for Relative composition of CSF proteins bound: αSN: 4:1 w/w CSF protein:fibril
Method: as §1, with “Samples with fibril material (20 μg), plasma (500 μg) or CSF (40 μg) proteins were prepared in 200 μL PBS buffer with 5 mM EDTA.” left out
as §2, §3, §4, §5, §6, §7

FAS4-AD aggregates [12] = test system: T6, FAS4-AD aggregates; assay: as above; format: binding, human; set-up: key to Identification status of CSF protein bound: FAS4-AD: *: Identified, but not quantified; —: Not identified in any of the samples; settings: for Identification status of CSF protein bound: FAS4-AD: symbol cells; for Relative composition of CSF proteins bound: FAS4-AD: 4:1 w/w CSF protein:fibril
Method: as §1, with “Samples with fibril material (20 μg), plasma (500 μg) or CSF (40 μg) proteins were prepared in 200 μL PBS buffer with 5 mM EDTA.” left out
as §2, §3, §4, §5, §6, §7

T3 sequence (P01275 53-81 limits assumed): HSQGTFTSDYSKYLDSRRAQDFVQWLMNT
T4 sequence (P01009 383-418 limits assumed): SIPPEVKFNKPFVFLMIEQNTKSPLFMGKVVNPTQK

| Substance | Relative composition of plasma proteins bound: Ab1 (Ab1 fibrils [1]) | Relative composition of plasma proteins bound: Ab2 (Ab2 fibrils [2]) | Relative composition of plasma proteins bound: Glucagon (glucagon fibrils [3]) | Identification status of plasma protein bound: C-36 (C-36 fibrils [4]; symbol cells) | Identification status of plasma protein bound: αSN (αSN fibrils [5]) | Relative composition of plasma proteins bound: FAS4-AD (FAS4-AD aggregates [6]) | Relative composition of CSF proteins bound: Ab1 (Ab1 fibrils [7]) | Identification status of CSF protein bound: Ab2 (Ab2 fibrils [8]) | Relative composition of CSF proteins bound: Glucagon (glucagon fibrils [9]) | Identification status of CSF protein bound: C-36 (C-36 fibrils [10]) | Identification status of CSF protein bound: αSN (αSN fibrils [11]) | Identification status of CSF protein bound: FAS4-AD (FAS4-AD aggregates [12]) | Relative composition of plasma proteins bound: C-36 (C-36 fibrils [4]) | Relative composition of CSF proteins bound: Ab2 (Ab2 fibrils [8]) | Relative composition of CSF proteins bound: C-36 (C-36 fibrils [10]) | Relative composition of CSF proteins bound: αSN (αSN fibrils [11]) | Relative composition of CSF proteins bound: FAS4-AD (FAS4-AD aggregates [12]) | Relative composition of plasma proteins bound: αSN (αSN fibrils [5]) | Relative composition of CSF proteins bound: FAS4-AD (FAS4-AD aggregates [12]; listed as clusterin) | Identification status of plasma protein bound: FAS4-AD (FAS4-AD aggregates [6]) |
| --- | --- | --- | --- | --- | --- | --- | --- | --- | --- | --- | --- | --- | --- | --- | --- | --- | --- | --- | --- | --- |
| α1-antitrypsin: plasma/CSF protein bound to fibrils | 0.4 ± 0.0 % of total protein | 0.4±0.0 % of total protein | 0.6 ± 0.0 % of total protein | * | * | 1.4 ± 0.5 % of total protein | 0.5 ± 0.2 % of total protein | * | 1.0 ± 0.2 % of total protein | * | * | * |  |  |  |  |  |  |  |  |
| Apolipoprotein D: plasma/CSF protein bound to fibrils | 0.1 ± 0.0 % of total protein | 0.3 ± 0.0 % of total protein | 0.3 ± 0.1 % of total protein |  | * | 1.1 ± 0.1 % of total protein | 8.7 ± 0.4 % of total protein |  | 1.8 ± 0.3 % of total protein |  |  |  | 0.9 ± 0.1 % of total protein | 11.2 ± 0.6 % of total protein | 9.0 ± 2.3 % of total protein | 3.4 ± 0.5 % of total protein | 5.7 ± 0.4 % of total protein |  |  |  |
| Clusterin: plasma/CSF protein bound to fibrils | 1.1 ± 0.1 % of total protein | 2.2 ± 1.2 % of total protein | 0.5 ± 0.1 % of total protein |  |  | 7.9 ± 4.2 % of total protein | 9.4 ± 1.0 % of total protein |  | 2.4 ± 0.6 % of total protein |  |  |  | 3.5 ± 0.9 % of total protein | 6.9 ± 1.6 % of total protein | 8.6 ± 1.7 % of total protein | 12.2 ± 2.9 % of total protein | 22.8 ± 11.2 % of total protein | 1.6 ± 0.9 % of total protein | 22.8 % of total protein |  |
| Ig γ-1 chain C region: plasma/CSF protein bound to fibrils | 1.1 ± 0.1 % of total protein | 1.2 ± 0.1 % of total protein | 1.2 ± 0.2 % of total protein |  |  | 9.5 ± 2.6 % of total protein | 2.5 ± 0.1 % of total protein |  | 1.4 ± 0.5 % of total protein |  |  | * | 1.9 ± 0.2 % of total protein | 3.1 ± 0.3 % of total protein | 1.4 ± 0.2 % of total protein | 4.2 ± 0.4 % of total protein |  | 1.9 ± 0.9 % of total protein |  |  |
| Complement C1s subcomponent: plasma/CSF protein bound to fibrils | 0.3 ± 0.0 % of total protein | 0.7 ± 0.1 % of total protein | 0.2 ± 0.0 % of total protein |  | * |  | 0.2 ± 0.0 % of total protein | * | 0.2 ± 0.0 % of total protein |  | — | — | 0.4 ± 0.1 % of total protein |  | 0.7 ± 0.2 % of total protein |  |  |  |  | — |
| Complement C3: plasma/CSF protein bound to fibrils | 0.4 ± 0.0 % of total protein | 0.6 ± 0.1 % of total protein | 2.3 ± 0.2 % of total protein |  | * |  | 0.3 ± 0.1 % of total protein |  | 0.8 ± 0.2 % of total protein | * | — | — | 0.2 ± 0.0 % of total protein | 0.3 ± 0.1 % of total protein |  |  |  |  |  | * |

From PMC6405930, “Conservation of the Amyloid Interactome Across Diverse Fibrillar Structures” (Scientific Reports, 2019)
